Assay results as given in the Deep4Chem optical property database.
Blank lines part the entries; values can stand above or below the compound they belong to.

Experiment: photoluminescence quantum yield (fraction); solvent given as SMILES

photoluminescence quantum yield (in CCCCCC): 0.05
Structure (SMILES): CC(C)[Si](C#Cc1ccc(C#C[Si](C(C)C)(C(C)C)C(C)C)c2nc3c(ccc4ccccc43)nc12)(C(C)C)C(C)C

photoluminescence quantum yield (in CS(C)=O): 0.07
Structure (SMILES): CCN1/C(=C/C=C/C2=[N+](C)c3ccccc3C2(C)C)C(C)(C)c2ccccc21

photoluminescence quantum yield (in ClCCl): 0.0041
Structure (SMILES): CC1=C(c2ccc(N(C)C)cc2)C(C)=[N+]2C1=C(c1c(-c3ccccn3)nc3ccccn13)c1c(C)cc(C)n1[B-]2(F)F

photoluminescence quantum yield (in ClCCl): 0.14
Structure (SMILES): F[B-]1(F)n2c(c3ccccc3c2-c2ccccc2)N=C2c3ccccc3C(c3ccccc3)=[N+]21

photoluminescence quantum yield (in CC#N): 0.08 | photoluminescence quantum yield (in CCCCCC): 0.95 | photoluminescence quantum yield (in CO): 0.14 | photoluminescence quantum yield (in ClC(Cl)Cl): 0.3 | photoluminescence quantum yield (in ClCCl): 0.32
Structure (SMILES): F[B-]1(F)n2c(nc3c4ccccc4c4ccccc4c32)-c2cccc[n+]21

photoluminescence quantum yield (in C1COCCO1): 0.45 | photoluminescence quantum yield (in CC#N): 0.37 | photoluminescence quantum yield (in CCCCOCCCC): 0.39 | photoluminescence quantum yield (in CCOC(C)=O): 0.26
Structure (SMILES): COc1nc(Nc2ccc3cc4ccccc4cc3c2)nc(OC)n1

photoluminescence quantum yield (in ClC(Cl)Cl): 0.33
Structure (SMILES): CN(C)c1ccc(-c2ccc(-c3cc(-c4ccccc4)c(-c4ccccc4)c(-c4ccccc4)c3-c3ccccc3)nc2)cc1

photoluminescence quantum yield (in ClC(Cl)Cl): 0.13
Structure (SMILES): N#CC1=CC(/C=C/c2ccccc2)=CC(C#N)=P1(c1ccccc1)c1ccccc1

photoluminescence quantum yield (in ClCCl): 0.47 | photoluminescence quantum yield (in c1cc(-n2c3ccccc3c3ccccc32)cc(-n2c3ccccc3c3ccccc32)c1): 0.45
Structure (SMILES): c1ccc(N(c2ccccc2)c2ccc(-c3ccc4c(c3)C3(c5cc(-c6ccc(N(c7ccccc7)c7ccccc7)cc6)ccc5O4)c4ccccc4-c4ccccc43)cc2)cc1

photoluminescence quantum yield (in CC#N): 0.28
Structure (SMILES): COc1ccc(/C=C/c2ccc(-c3ccc(C)cn3)nc2)cc1

photoluminescence quantum yield (in ClCCl): 0.09
Structure (SMILES): COc1ccc(-c2cc3c(ccc4sc5ccc6sc(-c7ccc(C#N)cc7)cc6c5c43)s2)cc1

photoluminescence quantum yield (in ClC(Cl)Cl): 0.002
Structure (SMILES): CC1=CC(C)=[N+]2C1=C(c1ccc(I)cc1)c1c(C)cc(C)n1[B-]21Oc2ccc3ccccc3c2-c2c(ccc3ccccc23)O1

photoluminescence quantum yield (in ClCCl): 0.13
Structure (SMILES): CC(C)CCCC(C)CCN1C(=O)c2ccc3c(-c4ccccc4)c4c5ccc6c7c(ccc(c(-c8ccccc8)c4c4ccc(c2c34)C1=O)c75)C(=O)N(CCC(C)CCCC(C)C)C6=O (stereo not drawn)

photoluminescence quantum yield (in C1CCOC1): 0.66
Structure (SMILES): CCCCCCOc1ccc(/C=C/c2ccc(N(c3ccc(/C=C/c4ccc(OCCCCCC)cc4)cc3)c3ccc(-c4nc5ccccc5nc4-c4ccc(N(c5ccc(/C=C/c6ccc(OCCCCCC)cc6)cc5)c5ccc(/C=C/c6ccc(OCCCCCC)cc6)cc5)cc4)cc3)cc2)cc1

photoluminescence quantum yield (in ClCCl): 0.04
Structure (SMILES): CC1=[N+]2C(=Cc3c4c(cn3[B-]2(F)F)-c2nc-4c(-c3ccccc3)c3ccc([nH]3)c(-c3ccccc3)c3nc(c(-c4ccccc4)c4ccc([nH]4)c2-c2ccccc2)C=C3)C(C)C1 (stereo not drawn)

photoluminescence quantum yield (in ClCCl): 0.45
Structure (SMILES): F[B-]1(F)N2C=CN=CC2=[N+]2[N+]1=Cc1c(-c3ccccc3)cc(-c3cccs3)n1[B-]2(F)F

photoluminescence quantum yield (in ClCCl): 0.0129
Structure (SMILES): c1ccc(-c2nc(-c3ccc(N4c5ccccc5Sc5ccccc54)cc3)nn2-c2ccc(N3c4ccccc4Sc4ccccc43)cc2)nc1

photoluminescence quantum yield (in ClCCl): 0.223
Structure (SMILES): Cc1cc2[nH]c3ccccc3c2c2[nH]c3ccccc3c12

Continued, compound first:

Structure (SMILES): COC(=O)C(Cc1ccc2oc(-c3ccc(N(C)C)cc3)nc2c1)NC(=O)OC(C)(C)C (stereo not drawn)
photoluminescence quantum yield (in C1CCCCC1): 1 | photoluminescence quantum yield (in C1CCOC1): 0.88 | photoluminescence quantum yield (in C1COCCO1): 1 | photoluminescence quantum yield (in CC1CCCO1): 1 | photoluminescence quantum yield (in CC1COC(=O)O1): 1 | photoluminescence quantum yield (in CC#N): 0.95 | photoluminescence quantum yield (in CC(C)=O): 1 | photoluminescence quantum yield (in CC(C)CC(C)(C)C): 0.95 | photoluminescence quantum yield (in CC(C)CO): 1 | photoluminescence quantum yield (in CC(C)O): 1 | photoluminescence quantum yield (in CC(C)OC(C)C): 1 | photoluminescence quantum yield (in CC(O)CO): 0.99 | photoluminescence quantum yield (in CCC(C)CC): 0.92 | photoluminescence quantum yield (in CCCCC): 0.95 | photoluminescence quantum yield (in CCCCCC): 0.93 | photoluminescence quantum yield (in CCCCCCCCC): 1 | photoluminescence quantum yield (in CCCCCCCCCC): 0.93 | photoluminescence quantum yield (in CCCCCCCO): 1 | photoluminescence quantum yield (in CCCCCCO): 1 | photoluminescence quantum yield (in CCCCCO): 1 | photoluminescence quantum yield (in CCCCO): 0.99 | photoluminescence quantum yield (in CCO): 0.98 | photoluminescence quantum yield (in CCOC(C)=O): 1 | photoluminescence quantum yield (in CCOCC): 0.99 | photoluminescence quantum yield (in CN(C)C=O): 0.92 | photoluminescence quantum yield (in CO): 0.81 | photoluminescence quantum yield (in COCCOC): 0.7 | photoluminescence quantum yield (in CS(C)=O): 1 | photoluminescence quantum yield (in Cc1ccccc1): 0.9 | photoluminescence quantum yield (in Cc1ccccc1C): 0.99 | photoluminescence quantum yield (in ClC(Cl)Cl): 0.68 | photoluminescence quantum yield (in ClCCl): 1 | photoluminescence quantum yield (in NC=O): 0.71 | photoluminescence quantum yield (in OC1CCCCC1): 0.91 | photoluminescence quantum yield (in OCCO): 0.76 | photoluminescence quantum yield (in c1ccccc1): 0.97

Structure (SMILES): CCCCCCCCCCOc1ccc(C#Cc2ccc(C#Cc3ccc(OCCCCCCCCCC)c(OCCCCCCCCCC)c3)c3nc4c5ccccc5c5ccccc5c4nc23)cc1OCCCCCCCCCC
photoluminescence quantum yield (in C1CCOC1): 0.23 | photoluminescence quantum yield (in Cc1ccccc1): 0.24 | photoluminescence quantum yield (in ClCCl): 0.22

Structure (SMILES): O=c1[nH]c(=O)c2nc3ccccc3nc2[nH]1
photoluminescence quantum yield (in CC#N): 0.009

Structure (SMILES): c1ccc(-c2ccc(-c3ccc(N(c4ccccc4)c4ccccc4)cc3)c3nsnc23)cc1
photoluminescence quantum yield (in C1CCOC1): 0.105 | photoluminescence quantum yield (in CC(C)=O): 0.01 | photoluminescence quantum yield (in CCCCCC): 0.492 | photoluminescence quantum yield (in CCOCC): 0.201

Structure (SMILES): Cc1ccc(C(=O)NN2C3=C(CC4=C2CCCC4=O)C(=O)CCC3)cc1
photoluminescence quantum yield (in C1CCOC1): 0.31 | photoluminescence quantum yield (in CC#N): 0.55 | photoluminescence quantum yield (in CC(C)=O): 0.32 | photoluminescence quantum yield (in CCCCCO): 0.5 | photoluminescence quantum yield (in CO): 0.4 | photoluminescence quantum yield (in ClC(Cl)Cl): 0.77 | photoluminescence quantum yield (in ClCCl): 0.44

Structure (SMILES): COc1cc2cc(C#Cc3ccc(/C=C(\C#N)C(=O)O)cc3)c(=O)oc2cc1OC
photoluminescence quantum yield (in CC#N): 0.05

Structure (SMILES): CN(C)CCN(Cc1c2ccccc2cc2ccccc12)c1ccc([N+](=O)[O-])cc1
photoluminescence quantum yield (in C1CCCCC1): 0.0008 | photoluminescence quantum yield (in C1CCOC1): 0.0015 | photoluminescence quantum yield (in CC#N): 0.0143 | photoluminescence quantum yield (in CC(C)=O): 0.022 | photoluminescence quantum yield (in CCO): 0.023 | photoluminescence quantum yield (in CN(C)C=O): 0.0411 | photoluminescence quantum yield (in CO): 0.0606 | photoluminescence quantum yield (in ClC(Cl)Cl): 0.0272

Structure (SMILES): CN(C)c1ccc(C2=Nc3scc(-c4ccccc4)[n+]3[B-](F)(F)O2)cc1
photoluminescence quantum yield (in C1CCOC1): 0.75 | photoluminescence quantum yield (in CC#N): 0.08 | photoluminescence quantum yield (in Cc1ccccc1): 0.94 | photoluminescence quantum yield (in ClCCl): 0.89

Structure (SMILES): COc1ccc2c(c1)sc1[n+]2[B-](F)(F)OC(c2ccc(N(C)C)cc2)=N1
photoluminescence quantum yield (in C1CCOC1): 0.8 | photoluminescence quantum yield (in CC#N): 0.38 | photoluminescence quantum yield (in CC(C)=O): 0.56 | photoluminescence quantum yield (in Cc1ccccc1): 0.88 | photoluminescence quantum yield (in ClCCl): 0.83

Structure (SMILES): c1ccc2nc(-n3c4ccccc4c4ccccc43)c(-n3c4ccccc4c4ccccc43)nc2c1
photoluminescence quantum yield (in Cc1ccccc1): 0.13

Structure (SMILES): CC(C)(C)c1cc(-c2ccc(-c3cc(C(C)(C)C)cc(C(C)(C)C)c3)cc2)cc(C(C)(C)C)c1
photoluminescence quantum yield (in C1COCCO1): 0.58

Structure (SMILES): C[n+]1ccc(-c2cc[n+](C)cc2)cc1
photoluminescence quantum yield (in CC#N): 0.02

Structure (SMILES): CC(=O)[B-]1(C(C)=O)OC(C)=CC(c2ccc3ccccc3c2)=[O+]1
photoluminescence quantum yield (in CC#N): 0.13 | photoluminescence quantum yield (in ClC(Cl)(Cl)Cl): 0.16

Structure (SMILES): CC1(C)C(/C=C/C2=C(c3ccc(C(=O)O)cc3)C(=C/C=C3/N(CCCCS(=O)(=O)[O-])c4ccc(S(=O)(=O)[O-])cc4C3(C)C)/CCC2)=[N+](CCCCS(=O)(=O)[O-])c2ccc(S(=O)(=O)[O-])cc21
photoluminescence quantum yield (in CO): 0.1

Structure (SMILES): FC(F)(F)c1ccc(-c2nnc(-c3cc(-c4nnc(-c5ccc(C(F)(F)F)cc5)o4)c(-n4c5ccccc5c5ccccc54)cc3-n3c4ccccc4c4ccccc43)o2)cc1
photoluminescence quantum yield (in Cc1ccccc1): 0.095 | photoluminescence quantum yield (in O=P(c1ccccc1)(c1ccccc1)c1ccccc1Oc1ccccc1P(=O)(c1ccccc1)c1ccccc1): 0.698
